Experimental data from PubChem BioAssay (NCI).
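96-well plates; 48 h exposure; 5 concentrations. Endpoints by linear interpolation between flanking doses. Not reached: highest tested concentration assigned. At the GI50, growth is halved. The concentration for full growth arrest is given as TGI.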

Experiments:
Test in all cases: DTP human tumour cell line panel, 48 h
A549 NSCLC = tested on: A549 NSCLC
IGROV1 ovarian = tested on: IGROV1 ovarian
MDA-N = tested on: MDA-N
HCT-15 colon = tested on: HCT-15 colon
SF-539 CNS = tested on: SF-539 CNS
HCT-116 colon = tested on: HCT-116 colon
TK-10 renal = tested on: TK-10 renal
HOP-92 NSCLC = tested on: HOP-92 NSCLC
HOP-62 NSCLC = tested on: HOP-62 NSCLC
SR leukemia = tested on: SR leukemia
EKVX NSCLC = tested on: EKVX NSCLC
HT29 colon = tested on: HT29 colon
RXF 393 renal = tested on: RXF 393 renal
SK-MEL-28 melanoma = tested on: SK-MEL-28 melanoma
SF-295 CNS = tested on: SF-295 CNS
MOLT-4 leukemia = tested on: MOLT-4 leukemia
LOX IMVI melanoma = tested on: LOX IMVI melanoma
SF-268 CNS = tested on: SF-268 CNS
UACC-62 melanoma = tested on: UACC-62 melanoma
SW-620 colon = tested on: SW-620 colon
M14 melanoma = tested on: M14 melanoma
RPMI-8226 leukemia = tested on: RPMI-8226 leukemia
SK-MEL-5 melanoma = tested on: SK-MEL-5 melanoma
HS 578T breast = tested on: HS 578T breast
MDA-MB-231 breast = tested on: MDA-MB-231 breast
NCI-H460 lung = tested on: NCI-H460 lung
ACHN renal = tested on: ACHN renal
HCC-2998 colon = tested on: HCC-2998 colon
DU-145 prostate = tested on: DU-145 prostate
U251 CNS = tested on: U251 CNS
T-47D breast = tested on: T-47D breast
NCI-H226 lung = tested on: NCI-H226 lung
OVCAR-3 ovarian = tested on: OVCAR-3 ovarian
SK-MEL-2 melanoma = tested on: SK-MEL-2 melanoma
OVCAR-5 ovarian = tested on: OVCAR-5 ovarian
OVCAR-8 ovarian = tested on: OVCAR-8 ovarian
MALME-3M melanoma = tested on: MALME-3M melanoma
A498 renal = tested on: A498 renal
PC-3 prostate = tested on: PC-3 prostate
KM12 colon = tested on: KM12 colon
K-562 leukemia = tested on: K-562 leukemia
UACC-257 melanoma = tested on: UACC-257 melanoma
BT-549 breast = tested on: BT-549 breast
UO-31 renal = tested on: UO-31 renal
NCI-H23 lung = tested on: NCI-H23 lung
COLO 205 colon = tested on: COLO 205 colon
786-0 renal = tested on: 786-0 renal
MCF7 breast = tested on: MCF7 breast
SNB-75 CNS = tested on: SNB-75 CNS
NCI/ADR-RES ovarian = tested on: NCI/ADR-RES ovarian
SN12C renal = tested on: SN12C renal
OVCAR-4 ovarian = tested on: OVCAR-4 ovarian
MDA-MB-435 = tested on: MDA-MB-435
SK-OV-3 ovarian = tested on: SK-OV-3 ovarian
CAKI-1 renal = tested on: CAKI-1 renal
NCI-H522 lung = tested on: NCI-H522 lung
CCRF-CEM leukemia = tested on: CCRF-CEM leukemia
HL-60(TB) leukemia = tested on: HL-60(TB) leukemia
SNB-19 CNS = tested on: SNB-19 CNS

`CCOC(=O)/C=C(\C(=O)OCC)n1ccc(=O)n(Cc2cnnn2CCCCOC(C)=O)c1=O` gave a TGI (A549 NSCLC) of 40.2 µM, a TGI (IGROV1 ovarian) of 28.4 µM and a TGI (MDA-N) of 51.4 µM. For the same compound, the TGI (HCT-15 colon) was 20.3 µM, the TGI (SF-539 CNS) was 5.44 µM and the TGI (HCT-116 colon) was over 45.3 µM. The TGI (TK-10 renal) was 8.96 µM, the TGI (HOP-92 NSCLC) was 5.63 µM and the TGI (HOP-62 NSCLC) was 41.9 µM. It also gave a GI50 (SR leukemia) of 1.68 µM, a TGI (SR leukemia) of 5.49 µM and a TGI (EKVX NSCLC) of 24.8 µM. For the same compound, the TGI (HT29 colon) was 23.5 µM, the TGI (RXF 393 renal) was 2.16 µM and the TGI (SK-MEL-28 melanoma) was 21.4 µM. The TGI (SF-295 CNS) was over 59.8 µM, the GI50 (MOLT-4 leukemia) was 2.23 µM and the TGI (MOLT-4 leukemia) was 5.19 µM. For the same compound, the TGI (LOX IMVI melanoma) was 17.6 µM, the TGI (SF-268 CNS) was 34.1 µM and the TGI (UACC-62 melanoma) was 23.4 µM. The TGI (SW-620 colon) was over 41.1 µM, the TGI (M14 melanoma) was 38.8 µM and the TGI (RPMI-8226 leukemia) was over 22.5 µM. It also gave a TGI (SK-MEL-5 melanoma) of 30.2 µM, a TGI (HS 578T breast) of 58.9 µM and a TGI (MDA-MB-231 breast) of 38.1 µM. It also gave a TGI (NCI-H460 lung) of 26 µM, a TGI (ACHN renal) of 5.52 µM and a TGI (HCC-2998 colon) of 35.5 µM. For the same compound, the TGI (DU-145 prostate) was 36.1 µM, the TGI (U251 CNS) was over 59.3 µM and the TGI (T-47D breast) was 17.4 µM. For the same compound, the TGI (NCI-H226 lung) was 39.4 µM, the TGI (OVCAR-3 ovarian) was 21.5 µM and the TGI (SK-MEL-2 melanoma) was 36.3 µM. The TGI (OVCAR-5 ovarian) was 29.4 µM, the TGI (OVCAR-8 ovarian) was 13.9 µM and the TGI (MALME-3M melanoma) was 3.84 µM. It also gave a TGI (A498 renal) of 37.6 µM, a TGI (PC-3 prostate) of 30.8 µM and a TGI (KM12 colon) of 30.5 µM. It also gave a GI50 (K-562 leukemia) of 2.1 µM, a TGI (K-562 leukemia) of 10.2 µM and a TGI (UACC-257 melanoma) of 27.4 µM. It also gave a TGI (BT-549 breast) of 30.2 µM, a TGI (UO-31 renal) of 36.5 µM and a TGI (NCI-H23 lung) of 18.5 µM. For the same compound, the TGI (COLO 205 colon) was 5.8 µM, the TGI (786-0 renal) was over 37.5 µM and the TGI (MCF7 breast) was 18.8 µM. For the same compound, the TGI (SNB-75 CNS) was 31.5 µM, the TGI (NCI/ADR-RES ovarian) was 40.1 µM and the TGI (SN12C renal) was 45.3 µM. It also gave a TGI (OVCAR-4 ovarian) of 30.2 µM, a TGI (MDA-MB-435) of 22.9 µM and a TGI (SK-OV-3 ovarian) of over 75.7 µM. For the same compound, the TGI (CAKI-1 renal) was 6.8 µM and the TGI (NCI-H522 lung) was 3.05 µM.

`Cc1c(C)c(C)c(Cn2[nH]c(=O)n(C)c2=O)c(C)c1C` gave a TGI (A549 NSCLC) of over 100 µM, a TGI (IGROV1 ovarian) of over 100 µM and a TGI (MDA-N) of over 100 µM. For the same compound, the TGI (CCRF-CEM leukemia) was over 100 µM, the TGI (HCT-15 colon) was over 100 µM and the TGI (SF-539 CNS) was over 100 µM. It also gave a TGI (HCT-116 colon) of over 100 µM, a TGI (TK-10 renal) of over 100 µM and a TGI (HL-60(TB) leukemia) of over 100 µM. It also gave a TGI (HOP-92 NSCLC) of over 100 µM, a TGI (HOP-62 NSCLC) of over 100 µM and a TGI (EKVX NSCLC) of over 100 µM. For the same compound, the TGI (HT29 colon) was over 100 µM, the TGI (SK-MEL-28 melanoma) was over 100 µM and the TGI (SF-295 CNS) was over 100 µM. For the same compound, the TGI (MOLT-4 leukemia) was over 100 µM, the TGI (LOX IMVI melanoma) was over 100 µM and the TGI (SF-268 CNS) was over 100 µM. The TGI (UACC-62 melanoma) was over 100 µM, the TGI (SW-620 colon) was over 100 µM and the TGI (M14 melanoma) was over 100 µM. The TGI (RPMI-8226 leukemia) was over 100 µM, the TGI (SK-MEL-5 melanoma) was over 100 µM and the TGI (HS 578T breast) was over 100 µM. It also gave a TGI (MDA-MB-231 breast) of over 100 µM, a TGI (NCI-H460 lung) of over 100 µM and a TGI (ACHN renal) of over 100 µM. The TGI (HCC-2998 colon) was over 100 µM, the TGI (DU-145 prostate) was over 100 µM and the TGI (U251 CNS) was over 100 µM. The TGI (T-47D breast) was over 100 µM, the TGI (NCI-H226 lung) was over 100 µM and the TGI (SK-MEL-2 melanoma) was over 100 µM. For the same compound, the TGI (OVCAR-8 ovarian) was over 100 µM, the TGI (MALME-3M melanoma) was over 100 µM and the TGI (A498 renal) was over 100 µM. For the same compound, the TGI (PC-3 prostate) was over 100 µM, the TGI (KM12 colon) was over 100 µM and the TGI (K-562 leukemia) was over 100 µM. It also gave a TGI (UACC-257 melanoma) of over 100 µM, a TGI (BT-549 breast) of over 100 µM and a TGI (SNB-19 CNS) of over 100 µM. It also gave a TGI (UO-31 renal) of over 100 µM, a TGI (NCI-H23 lung) of over 100 µM and a TGI (COLO 205 colon) of over 100 µM. It also gave a TGI (786-0 renal) of over 100 µM, a TGI (MCF7 breast) of over 100 µM and a TGI (SNB-75 CNS) of over 100 µM. The TGI (NCI/ADR-RES ovarian) was over 100 µM, the TGI (SN12C renal) was over 100 µM and the TGI (MDA-MB-435) was over 100 µM. It also gave a TGI (SK-OV-3 ovarian) of over 100 µM, a TGI (CAKI-1 renal) of over 100 µM and a TGI (NCI-H522 lung) of over 100 µM.
